*1 amine or outer side, *2 acyl side, *3 side chain or, on linkers, in order; H or OH if unused. Where a SMILES comes first, the peptide text is derived from it. Bridges are numbered along the chain shown (N, C = ends). [ ]: non-standard residue; d: D form. The star is where a group is joined. ξ: configuration not given here. X2 = N=C1NC(O)C[C@H]([C@H](N[*:1])C(=O)[*:2])N1; ΔAla(Z-3-ureido) = NC(=O)N/C=C(\N)C(=O)O; ξβ3hOrn = NCCCC(N)CC(=O)*; Dap = NC[C@H](N)C(=O)O
Each compound was assayed against Bile salt export pump (Homo sapiens, UniProt O95342).
Type: ADME
`N=C1NC(O)C[C@H]([C@@H]2NC(=O)/C(=C/NC(N)=O)NC(=O)[C@H](CO)NC(=O)[C@H](CO)NC(=O)[C@@H](NC(=O)CC(N)CCCN)CNC2=O)N1` (stereo partly drawn) (ξβ3hOrn-[Dap]SS[ΔAla(Z-3-ureido)][X2]; lactam 1-C) was tested, and the IC50 was greater than 1000 µM.
Compound `COC(=O)[C@@H]1[C@H]2C[C@H]3c4[nH]c5ccccc5c4CCN3C[C@@H]2CC[C@@H]1O` [YOHIMBINE] has an IC50 of 254 µM.
`Cc1ccc(C(=O)c2cc(O)c(O)c([N+](=O)[O-])c2)cc1` [TOLCAPONE] gave an IC50 of less than 33.9 µM.
`Nc1ccc([As](=O)(O)O)cc1` was tested, and the IC50 was greater than 1000 µM.
`O=CN(O)C(CCc1ccccn1)CS(=O)(=O)N1CCN(c2ccc(Cl)cn2)CC1` (centres undefined) showed an IC50 of less than 10 µM.
In the case of `O=C(O)Cc1ccccc1Oc1ccc(Cl)cc1Cl` [FENCLOFENAC], the IC50 is reported as 236 µM.
Work on `CCOC(=O)n1ccn(C)c1=S` [CARBIMAZOLE] yielded an IC50 greater than 1000 µM.
Work on `CN1C(=O)[C@@H](NC(=O)c2cc3ccccc3[nH]2)N=C(c2ccccc2)c2ccccc21` [DEVAZEPIDE] yielded an IC50 of less than 10 µM.
`CC[C@H]1OC(=O)[C@H](C)[C@H](O[C@H]2C[C@@](C)(OC)[C@@H](O)[C@H](C)O2)[C@@H](C)[C@@H](O[C@@H]2O[C@H](C)C[C@H](N(C)C)[C@H]2O)[C@@](C)(OC)C[C@@H](C)C(=O)[C@H](C)[C@H](O)[C@]1(C)O` gave an IC50 of less than 12.9 µM.
With `CN1CCN2c3ccccc3Cc3ccccc3C2C1` (centres undefined) [MIANSERIN] the IC50 was 46.8 to 47 µM.
Work on `CCc1cc(C(N)=S)ccn1` [ETHIONAMIDE] yielded an IC50 greater than 1000 µM.
In the case of `COc1ccc(CN(CCN(C)C)c2ccccn2)cc1` [PYRILAMINE], the IC50 is reported as greater than 1000 µM.
`Cc1ccc(S(=O)(=O)NC(=O)NN2CC3CCCC3C2)cc1` (centres undefined) [GLICLAZIDE] gave an IC50 of 591 µM.
Work on `C[C@@H]1C[C@H]2[C@@H]3CCC4=CC(=O)C=C[C@]4(C)[C@@]3(F)[C@@H](O)C[C@]2(C)[C@H]1C(=O)CO` [DESOXIMETASONE] yielded an IC50 of 16.4 µM.
With `CNCC(O)c1cccc(O)c1` (centres undefined) the IC50 was greater than 1000 µM.
`O=c1[nH]c2c(O)ccc(CCNCCS(=O)(=O)CCCOCCc3ccccc3)c2s1` [SIBENADET] was tested, and the IC50 was less than 10 µM.
`CC(C(=O)O)c1ccc(-c2ccccc2)c(F)c1` (centres undefined) [FLURBIPROFEN] showed an IC50 of 725 µM.
Compound `CCc1nn(CCCN2CCN(c3cccc(Cl)c3)CC2)c(=O)n1CCOc1ccccc1` [NEFAZODONE] has an IC50 of less than 10 µM.
For `CN(C)CCCN1c2ccccc2Sc2ccc(C(F)(F)F)cc21` [TRIFLUPROMAZINE], the IC50 was 39 µM.
In the case of `COc1cc(NS(=O)(=O)c2ccc(N)cc2)nc(OC)n1` [SULFADIMETHOXINE], the IC50 is reported as greater than 1000 µM.
Compound `CC(C)(C)NCC(O)c1ccccc1Cl` (centres undefined) [TULOBUTEROL] has an IC50 greater than 1000 µM.
In the case of `CCCCNc1ccc(C(=O)OCCOCCOCCOCCOCCOCCOCCOCCOCCOC)cc1` [BENZONATATE], the IC50 is reported as less than 10 µM.
In the case of `Cc1nc(Nc2ncc(C(=O)Nc3c(C)cccc3Cl)s2)cc(N2CCN(CCO)CC2)n1` [DASATINIB], the IC50 is reported as less than 10 µM.
Work on `O=C(O)c1cc2c(OCCCO)cccc2n1Cc1ccc(Cl)c(Cl)c1` yielded an IC50 of less than 14 µM.
`N=c1nc(N2CCCCC2)cc(N)n1O` was tested, and the IC50 was greater than 1000 µM.
With `C[C@]12CC[C@@H]3c4ccc(O)cc4CC[C@H]3[C@@H]1CCC2=O` [ESTRONE] the IC50 was greater than 1000 µM.
In the case of `O=C(NC1CCN(CCc2c[nH]c3ccccc23)CC1)c1ccccc1` [INDORAMIN], the IC50 is reported as 109 µM.
For `Oc1ccc(Cl)c2cccnc12` [CLOXYQUIN], the IC50 was 357 µM.
`C[C@]12CC[C@@H]3c4ccc(O)cc4CC[C@H]3[C@@H]1C[C@@H](O)[C@@H]2O` [ESTRIOL] gave an IC50 greater than 1000 µM.
`CCN(CC)C(=S)S` [DITIOCARB] gave an IC50 of 69.3 µM.
In the case of `Cc1ccnc2c1NC(=O)c1cccnc1N2C1CC1` [NEVIRAPINE], the IC50 is reported as 295 µM.
`CC1(C)O[C@@H]2[C@@H](CO[C@@]3(COS(N)(=O)=O)OC(C)(C)O[C@@H]23)O1` [TOPIRAMATE] was tested, and the IC50 was greater than 1000 µM.
`CCOC(=O)[C@H](CCc1ccccc1)N[C@@H](C)C(=O)N1N=C(C(C)(C)C)S[C@H]1C(=O)O` [UTIBAPRIL] showed an IC50 of less than 13.5 µM.
Compound `COc1c(N2C[C@@H]3CCCN[C@@H]3C2)c(F)cc2c(=O)c(C(=O)O)cn(C3CC3)c12` [MOXIFLOXACIN] has an IC50 greater than 1000 µM.
For `CCC1(c2ccccc2)NC(=O)N(C)C1=O` (centres undefined) [MEPHENYTOIN], the IC50 was greater than 1000 µM.
`CC1CC(OC(=O)C(O)c2ccccc2)CC(C)(C)C1` (centres undefined) [CYCLANDELATE] was tested, and the IC50 was 15 µM.
For `O=C(C1CCCCC1)N1CC(=O)N2CCc3ccccc3C2C1` (centres undefined) [PRAZIQUANTEL], the IC50 was 60.3 µM.
Compound `CC1(C)O[C@@H]2C[C@H]3[C@@H]4CCC5=CC(=O)CC[C@]5(C)[C@@]4(F)[C@@H](O)C[C@]3(C)[C@]2(C(=O)CCl)O1` [HALCINONIDE] has an IC50 of less than 10 µM.
Work on `CC1=NS(=O)(=O)c2cc(Cl)ccc2N1` [DIAZOXIDE] yielded an IC50 greater than 1000 µM.
Compound `COc1ccccc1O` [GUAIACOL] has an IC50 greater than 1000 µM.
Work on `OCc1ccccc1O[C@@H]1O[C@H](CO)[C@@H](O)[C@H](O)[C@H]1O` [SALICIN] yielded an IC50 greater than 1000 µM.
With `Cc1ccc(NC(=O)c2cccc(-c3ccco3)c2)cc1-n1cnc2ccc(N3CCN(C)CC3)cc2c1=O` the IC50 was less than 10 µM.
`OCCN1CCN(CCCN2c3ccccc3Sc3ccc(Cl)cc32)CC1` [PERPHENAZINE] showed an IC50 of 34.8 µM.
`Cc1nc(C)c(C)nc1C` [LIGUSTRAZINE] was tested, and the IC50 was greater than 1000 µM.
Compound `C#C[C@]1(O)CC[C@H]2[C@@H]3CCc4cc(O)ccc4[C@H]3CC[C@@]21C` [ETHINYL ESTRADIOL] has an IC50 of less than 10 µM.
Compound `CNCC(O)c1ccc(O)cc1` (centres undefined) [OXEDRINE] has an IC50 greater than 1000 µM.
Work on `CC(=O)Nc1ccccc1` [ACETANILIDE] yielded an IC50 greater than 1000 µM.
For `COc1cc2nc(N3CCN(C(=O)c4ccco4)CC3)nc(N)c2cc1OC` [PRAZOSIN], the IC50 was 172 µM.
With `CCCSc1nc(N)c2ncn([C@@H]3O[C@H](COP(=O)(O)OP(=O)(O)C(Cl)(Cl)P(=O)(O)O)[C@@H](O)[C@H]3O)c2n1` the IC50 was greater than 1000 µM.
`C#Cc1cccc(Nc2ncnc3cc(OCCOC)c(OCCOC)cc23)c1` [ERLOTINIB] was tested, and the IC50 was less than 10 µM.
Compound `CC(C)(C)C(=O)Oc1ccc(S(=O)(=O)Nc2ccccc2C(=O)NCC(=O)O)cc1` has an IC50 of 142 µM.
`Cc1ccc(S(=O)(=O)NC(=O)NN2CCCCCC2)cc1` [TOLAZAMIDE] showed an IC50 of 286 µM.
Work on `N=C(N)N/N=C/c1c(Cl)cccc1Cl` [GUANABENZ] yielded an IC50 of 344 µM.
`CCN(Cc1ccncc1)C(=O)C(CO)c1ccccc1` (centres undefined) [TROPICAMIDE] was tested, and the IC50 was 151 µM.
`C[N+](C)(C)CC(O)CC(=O)[O-]` (centres undefined) [CARNITINE] was tested, and the IC50 was greater than 1000 µM.
`CC[N+](C)(C)Cc1ccccc1Br` [BRETYLIUM] gave an IC50 greater than 1000 µM.
In the case of `O=CN(O)C(CCc1cccnc1)CS(=O)(=O)N1CCC(Oc2ccc(Cl)cn2)CC1` (centres undefined), the IC50 is reported as less than 10 µM.
`O=C(CCCCC(=O)Nc1c(I)cc(I)c(C(=O)O)c1I)Nc1c(I)cc(I)c(C(=O)O)c1I` showed an IC50 greater than 970 µM.
`CC1(C)Oc2ccc(C#N)cc2[C@@H](N2CCCC2=O)[C@@H]1O` [LEVCROMAKALIM] showed an IC50 of 353 µM.
Work on `c1ccc([C@H]2CN3CCSC3=N2)cc1` [LEVAMISOLE] yielded an IC50 greater than 1000 µM.
In the case of `COc1ccnc(-c2cccc(C)c2[S+]([O-])c2nc3ccccc3[nH]2)c1` (centres undefined), the IC50 is reported as less than 10 µM.
`CCN(CC)CCOC(=O)C(c1ccccc1)c1ccccc1` [ADIPHENINE] showed an IC50 of 158 µM.
`CCC(NC(C)C)C(O)c1ccc(O)c(O)c1` (centres undefined) [ISOETHARINE] showed an IC50 greater than 1000 µM.
In the case of `NC(CO)C(=O)NNCc1ccc(O)c(O)c1O` (centres undefined) [BENSERAZIDE], the IC50 is reported as 117 µM.
For `COc1ccc2c(c1OC)C(=O)OC2C1c2c(cc3c(c2OC)OCO3)CCN1C` (centres undefined), the IC50 was 23.9 µM.
For `CN1C[C@H](CNC(=O)OCc2ccccc2)C[C@@H]2c3cccc4c3c(cn4C)C[C@H]21` [METERGOLINE], the IC50 was less than 10 µM.
Work on `Cc1ccc(-n2c3c/c(=N\C(C)C)c(Nc4ccc(Cl)cc4)cc-3nc3ccccc32)cc1` yielded an IC50 of 135 µM.
`Cc1ccccc1OCC(O)CO` (centres undefined) [MEPHENESIN] gave an IC50 greater than 1000 µM.
`COc1ccc2cc([C@H](C)C(=O)O)ccc2c1` [NAPROXEN] was tested, and the IC50 was greater than 1000 µM.

— ChEMBL document CHEMBL4017441, “Mitigating the inhibition of human bile salt export pump by drugs: opportunities provided by physicochemical property modulation, in silico modeling, and structural modification” (Drug Metab Dispos, 2012)
